Measurements reported in patent US20220142995A1, “DUAL ATM AND DNA-PK INHIBITORS FOR USE IN ANTI-TUMOR THERAPY” (XRAD Therapeutics, Inc., priority 2019, published 2022).

Key:
MCF7 cells = experiment: Clonogenic survival assay in MCF7 cells with or without radiation; assay type: cell-based, human; conditions: for Fold 2 Gy / Fold 4 Gy: relative to DMSO
Procedure: Cell Culture. The MCF-7 human breast carcinoma cell line and HCT116 p53 wild-type and HCT116 p53−/− cell lines were obtained from ATCC. MCF7 and HCT116 cells were cultured in Dulbecco's modified Eagle's medium (DMEM (Gibco #11995-065). MDA-MB-231 human triple negative breast cancer cell line and FADU, human head and neck squamous cell carcinoma line, were obtained from Charles River Laboratories (Morrisville, N.C.). MDA-MB-231 cells were cultured in RPMI 1640 medium (Gibco, 11875-093). FADU cells were cultured in Minimum Essential Medium a (MEM a) (Gibco, 12571-063) supplemented with 1 mM Sodium Pyruvate (Gibco, 11360-070), 1×MEM Non-Essential Amino Acids (Gibco, 11140-050). All cell lines were supplemented with 10% fetal bovine serum (FBS) (Corning, 35-010-CV) and 1× Anti biotic-Anti mycotic (Gibco #15240-062) and were grown at […]. All cell lines were authenticated by short tandem repeat profiling and tested negative for mycoplasma.
Clonogenic survival assay. This assay was performed with compound 569. Cells were plated in 6-well plates at different densities: 250 cells for no IR control, 5000 cells for 2 Gy of IR and 10000 cells for 4 Gy of IR and cultured overnight. The next day, cells were preincubated with compound 569 at 100, 250, 500, or 1000 nM or DMSO for 30 min before being exposed to increasing doses of IR (0, 2, or 4 Gy). After IR, cells were continuously incubated with DMSO or compound 569 for 5 h before the culture medium was removed and cells were washed with PBS. Cells were cultured in complete medium in the absence of inhibitor for 9 days. Then cells were stained (PBS, 0.0037% v/v formaldehyde, 0,1% crystal violet) rinsed with water and dried.

[1] = tested on: FADU subcutaneous human xenograft; experiment: In vivo tumor growth delay study, FADU subcutaneous human xenograft mouse model
Excerpt: (§1) Tumor Studies. Female NCr nu/nu mice (Crl:NU(NCr)-Foxn1 nu, Strain 490) were obtained from Charles River at 5-6 weeks of age. All animal procedures used in these studies were approved by the Institutional Animal Care and Use Committee (IACUC) at Duke University.
(§2) FADU or MDA-MB-231 cells were harvested during log phase growth for in vivo implantation. The resuspended cells were washed three times in phosphate buffered saline (PBS) before preparing the working dilution in PBS. FADU cells were diluted to 1×10^7 cells/mL and MDA-MB-231 cells were diluted to 5×10^7 cells/mL. Each mouse was injected subcutaneously in the right flank with 100 μL of the cellular suspension. Tumor growth was monitored until the tumors reached a target volume of at least 100 mm^3, at which point mice were randomly stratified into four treatment groups.
(§3) Following implantation of the tumor cell lines, mice were monitored once weekly for tumor development. Upon detection, tumors were measured in two dimensions using digital calipers. Tumors were treated after reaching at least 100 mm^3 and were measured two to three times weekly following enrollment in one of the treatment groups. The study endpoint was defined as tumor quintupling from the volume at time of treatment.
The vehicle used in this study was 0.5% (Hydroxypropyl)methyl cellulose (HPMC) and 0.2% Tween80 dissolved in deionized water. The pH of the vehicle was adjusted to 7.0-8.0 and the vehicle was stored at 4° C. […]
In vivo tumor growth delay study was performed as follows. Following implantation of the tumor cell lines, mice were monitored once weekly for tumor development. […]
(§4) Statistical and Graphical Analysis of the in vivo data. […] In order to adjust for the differing tumor sizes at the start of treatment, the relative tumor volume was calculated by dividing the tumor volume at each time point by the volume at baseline. […] When an animal exited the study due to tumor quintupling, the final tumor volume recorded for the animal was included with the data used to calculate the median volume at subsequent time points. […]

[2] = tested on: MDA-MB-231 subcutaneous human xenograft; experiment: In vivo tumor growth delay study, MDA-MB-231 subcutaneous human xenograft mouse model
Excerpt: as §1, §2, §3
The vehicle used in this study was 0.5% (Hydroxypropyl)methyl cellulose (HPMC) and 0.2% Tween80 dissolved in deionized water. The pH of the vehicle was adjusted to 7.0-8.0 and the vehicle was stored at 4° C. On each day of in vivo treatment an appropriate mass of test compound was added to the vehicle at room temperature. The mixture was vortexed as necessary to generate a final concentration of 1.6 mg/mL.
In vivo tumor growth delay study was performed as follows. Following implantation of the tumor cell lines, mice were monitored once weekly for tumor development. Upon development of a tumor measuring at least 100 mm^3, tumor-bearing mice were stratified to one of 4 groups, utilizing 5 mice per group. Tumor volumes were between 100 and 500 mm^3. Vehicle or compound 569 (10 mg/kg) were administered by oral gavage once daily for three consecutive days (qd×3), alone or in combination with focal radiation. The delivered volume of vehicle or compound 569 was adjusted based on body weight of the individual animals. […]
as §4

## CC(C)NCCOc1ncc(-c2cc3c4c(cnc3cc2F)N(C)C(=O)C42CCC2)cc1NS(C)(=O)=O [Compound 569, N-(5-(7′-Fluoro-3′-methyl-2′-oxo-2′,3′-dihydrospiro[cyclobutane-1,1′-pyrrolo[2,3-c]quinolin]-8′-yl)-2-(2-(isopropylamino)ethoxy)pyridin-3-yl)methanesulfonamide]
MCF7 cells; 100 nM
  Fold 2 Gy: 7.5
  Fold 4 Gy: 21.8
MCF7 cells; 250 nM
  Fold 2 Gy: 10.8
  Fold 4 Gy: 54.0
MCF7 cells; 500 nM
  Fold 2 Gy: 14.7
  Fold 4 Gy: 91.5
MCF7 cells; 1000 nM
  Fold 2 Gy: 22.0
  Fold 4 Gy: 198
MCF7 cells; 5-h exposure, 100-1000 nM, IR 0, 2, 4 Gy
  radiosensitization: significant degree of radiosensitization
MCF7 cells; 5-h exposure, 100-1000 nM, no IR
  cellular toxicity in the absence of IR: without evidence of cellular toxicity
[1]; FADU, Group 2 (10 mg/kg qd×3 alone) versus Group 1 (vehicle)
  tumor growth curves and quintupling-free survival: nearly identical to those for Group 1
[1]; FADU, Group 4: 10 mg/kg + 3 Gy qd×3, P<0.01, logrank
  overall survival compared to Group 1, Group 2 and Group 3: significantly improved
[1]; FADU-bearing mice, 10 mg/kg qd×3 alone or with 3 Gy
  tolerability: well-tolerated
[2]; MDA-MB-231, Group 2 (10 mg/kg qd×3 alone) versus Group 1 (vehicle)
  tumor growth curves and quintupling-free survival: nearly identical to those for Group 1
[2]; MDA-MB-231, Group 4: 10 mg/kg + 3 Gy qd×3, P<0.01, logrank
  overall survival compared to Group 1, Group 2 and Group 3: significantly improved
[2]; MDA-MB-231, Group 4: 10 mg/kg + 3 Gy qd×3, unknown causes
  animals found dead: One animal was found dead on Day 35
[2]; MDA-MB-231-bearing mice, 10 mg/kg qd×3 alone or with 3 Gy
  tolerability: well-tolerated
